Assay results reported in ChEMBL document CHEMBL3797052 (Eur J Med Chem, 2016).

How the values were obtained:
[1] = Antiproliferative activity against human OVCAR3 cells assessed as growth inhibition after 48 hrs by sulforhodamine B assay; assay type: functional; conditions: OVCAR-3, 48 h
[2] = Antiproliferative activity against human UACC62 cells assessed as cell growth at 10^-7 M after 48 hrs by sulforhodamine B assay; assay type: functional; conditions: UACC-62, 48 h, read-out: Activity
[3] = Antiproliferative activity against human UACC257 cells assessed as cell growth at 10^-7 M after 48 hrs by sulforhodamine B assay; assay type: functional; conditions: UACC-257, 48 h, read-out: Activity
[4] = tested on: MDA-MB-231; assay: Antiproliferative activity against human MDA-MB-231 cells assessed as cell growth at 10^-8 M after 48 hrs by sulforhodamine B assay; assay type: functional; conditions: MDA-MB-231, 48 h, read-out: Activity
[5] = tested on: 786-0; assay: Antiproliferative activity against human 786-0 cells assessed as cell growth at 10^-6 M after 48 hrs by sulforhodamine B assay; assay type: functional; conditions: 786-0, 48 h, read-out: Activity
[6] = Antiproliferative activity against human NCI-ADR-RES cells assessed as cell growth at 10^-8 M after 48 hrs by sulforhodamine B assay; assay type: functional; conditions: read-out: Activity
[7] = tested on: 786-0; assay: Antiproliferative activity against human 786-0 cells assessed as cell growth at 10^-8 M after 48 hrs by sulforhodamine B assay; assay type: functional; conditions: 786-0, 48 h, read-out: Activity
[8] = Antiproliferative activity against human OVCAR8 cells assessed as cell growth at 10^-4 M after 48 hrs by sulforhodamine B assay; assay type: functional; conditions: OVCAR-8, 48 h, read-out: Activity
[9] = tested on: SK-MEL-5; assay: Antiproliferative activity against human SK-MEL-5 cells assessed as cell growth at 10^-6 M after 48 hrs by sulforhodamine B assay; assay type: functional; conditions: SK-MEL-5, 48 h, read-out: Activity
[10] = Antiproliferative activity against human SNB75 cells assessed as cell growth at 10^-6 M after 48 hrs by sulforhodamine B assay; assay type: functional; conditions: SNB-75, 48 h, read-out: Activity
[11] = molecular target: RAF proto-oncogene serine/threonine-protein kinase (Homo sapiens, UniProt P04049); assay: Inhibition of human C-RAF measured after 40 mins by scintillation counting
[12] = tested on: NCI-H23; assay: Antiproliferative activity against human NCI-H23 cells assessed as cell growth at 10^-4 M after 48 hrs by sulforhodamine B assay; assay type: functional; conditions: NCI-H23, 48 h, read-out: Activity
[13] = tested on: HT-29; assay: Antiproliferative activity against human HT-29 cells assessed as cell growth at 10^-4 M after 48 hrs by sulforhodamine B assay; assay type: functional; conditions: HT-29, 48 h, read-out: Activity
[14] = Antiproliferative activity against human MOLT4 cells assessed as cell growth at 10^-4 M after 48 hrs by sulforhodamine B assay; assay type: functional; conditions: MOLT-4, 48 h, read-out: Activity
[15] = Antiproliferative activity against human OVCAR4 cells assessed as cell growth at 10^-8 M after 48 hrs by sulforhodamine B assay; assay type: functional; conditions: OVCAR-4, 48 h, read-out: Activity
[16] = molecular target: hERG (KCNH2) (Homo sapiens, UniProt Q12809); assay: Inhibition of human ERG assessed as reduction in channel current at 100 uM by automated patch-clamp electrophysiology assay
[17] = tested on: ACHN; assay: Antiproliferative activity against human ACHN cells assessed as cell growth at 10^-4 M after 48 hrs by sulforhodamine B assay; assay type: functional; conditions: read-out: Activity
[18] = Antiproliferative activity against human LOXIMVI cells assessed as growth inhibition after 48 hrs by sulforhodamine B assay; assay type: functional; conditions: LOX IMVI; for CC50: read-out: LC50 (the source's name)
[19] = tested on: Malme-3M; assay: Antiproliferative activity against human MALME-3M cells assessed as cell growth at 10^-6 M after 48 hrs by sulforhodamine B assay; assay type: functional; conditions: read-out: Activity
[20] = Antiproliferative activity against human HCT116 cells assessed as cell growth at 10^-4 M after 48 hrs by sulforhodamine B assay; assay type: functional; conditions: HCT-116, 48 h, read-out: Activity
[21] = Antiproliferative activity against human HOP92 cells assessed as cell growth at 10^-7 M after 48 hrs by sulforhodamine B assay; assay type: functional; conditions: HOP-92, 48 h, read-out: Activity
[22] = tested on: NCI-H460; assay: Antiproliferative activity against human NCI-H460 cells assessed as cell growth at 10^-8 M after 48 hrs by sulforhodamine B assay; assay type: functional; conditions: NCI-H460, 48 h, read-out: Activity
[23] = Antiproliferative activity against human HCT15 cells assessed as cell growth at 10^-8 M after 48 hrs by sulforhodamine B assay; assay type: functional; conditions: HCT-15, 48 h, read-out: Activity
[24] = Antiproliferative activity against human HCC2998 cells assessed as cell growth at 10^-4 M after 48 hrs by sulforhodamine B assay; assay type: functional; conditions: HCC 2998, 48 h, read-out: Activity
[25] = Antiproliferative activity against human COLO205 cells assessed as cell growth at 10^-7 M after 48 hrs by sulforhodamine B assay; assay type: functional; conditions: COLO 205, 48 h, read-out: Activity
[26] = tested on: MCF7; assay: Antiproliferative activity against human MCF7 cells assessed as cell growth at 10^-8 M after 48 hrs by sulforhodamine B assay; assay type: functional; conditions: MCF7, 48 h, read-out: Activity
[27] = Antiproliferative activity against human HCT15 cells assessed as cell growth at 10^-7 M after 48 hrs by sulforhodamine B assay; assay type: functional; conditions: HCT-15, 48 h, read-out: Activity
[28] = tested on: M14; assay: Antiproliferative activity against human M14 cells assessed as growth inhibition after 48 hrs by sulforhodamine B assay; assay type: functional; conditions: M14, 48 h; for CC50: read-out: LC50 (the source's name)
[29] = tested on: KM12; assay: Antiproliferative activity against human KM12 cells assessed as cell growth at 10^-8 M after 48 hrs by sulforhodamine B assay; assay type: functional; conditions: KM12, 48 h, read-out: Activity
[30] = tested on: A498; assay: Antiproliferative activity against human A498 cells assessed as cell growth at 10^-4 M after 48 hrs by sulforhodamine B assay; assay type: functional; conditions: A498, 48 h, read-out: Activity
[31] = tested on: NCI-H322M; assay: Antiproliferative activity against human NCI-H322M cells assessed as cell growth at 10^-6 M after 48 hrs by sulforhodamine B assay; assay type: functional; conditions: read-out: Activity
[32] = tested on: A549; assay: Antiproliferative activity against human A549/ATCC cells assessed as cell growth at 10^-6 M after 48 hrs by sulforhodamine B assay; assay type: functional; conditions: A549, 48 h, read-out: Activity
[33] = tested on: NCI-H522; assay: Antiproliferative activity against human NCI-H522 cells assessed as cell growth at 10^-6 M after 48 hrs by sulforhodamine B assay; assay type: functional; conditions: NCI-H522, 48 h, read-out: Activity
[34] = tested on: K562; assay: Antiproliferative activity against human K562 cells assessed as growth inhibition after 48 hrs by sulforhodamine B assay; assay type: functional; conditions: K562, 48 h; for CC50: read-out: LC50 (the source's name)
[35] = Antiproliferative activity against human SF539 cells assessed as growth inhibition after 48 hrs by sulforhodamine B assay; assay type: functional; conditions: SF-539, 48 h

hERG (KCNH2), sequence (Q12809 whole entry): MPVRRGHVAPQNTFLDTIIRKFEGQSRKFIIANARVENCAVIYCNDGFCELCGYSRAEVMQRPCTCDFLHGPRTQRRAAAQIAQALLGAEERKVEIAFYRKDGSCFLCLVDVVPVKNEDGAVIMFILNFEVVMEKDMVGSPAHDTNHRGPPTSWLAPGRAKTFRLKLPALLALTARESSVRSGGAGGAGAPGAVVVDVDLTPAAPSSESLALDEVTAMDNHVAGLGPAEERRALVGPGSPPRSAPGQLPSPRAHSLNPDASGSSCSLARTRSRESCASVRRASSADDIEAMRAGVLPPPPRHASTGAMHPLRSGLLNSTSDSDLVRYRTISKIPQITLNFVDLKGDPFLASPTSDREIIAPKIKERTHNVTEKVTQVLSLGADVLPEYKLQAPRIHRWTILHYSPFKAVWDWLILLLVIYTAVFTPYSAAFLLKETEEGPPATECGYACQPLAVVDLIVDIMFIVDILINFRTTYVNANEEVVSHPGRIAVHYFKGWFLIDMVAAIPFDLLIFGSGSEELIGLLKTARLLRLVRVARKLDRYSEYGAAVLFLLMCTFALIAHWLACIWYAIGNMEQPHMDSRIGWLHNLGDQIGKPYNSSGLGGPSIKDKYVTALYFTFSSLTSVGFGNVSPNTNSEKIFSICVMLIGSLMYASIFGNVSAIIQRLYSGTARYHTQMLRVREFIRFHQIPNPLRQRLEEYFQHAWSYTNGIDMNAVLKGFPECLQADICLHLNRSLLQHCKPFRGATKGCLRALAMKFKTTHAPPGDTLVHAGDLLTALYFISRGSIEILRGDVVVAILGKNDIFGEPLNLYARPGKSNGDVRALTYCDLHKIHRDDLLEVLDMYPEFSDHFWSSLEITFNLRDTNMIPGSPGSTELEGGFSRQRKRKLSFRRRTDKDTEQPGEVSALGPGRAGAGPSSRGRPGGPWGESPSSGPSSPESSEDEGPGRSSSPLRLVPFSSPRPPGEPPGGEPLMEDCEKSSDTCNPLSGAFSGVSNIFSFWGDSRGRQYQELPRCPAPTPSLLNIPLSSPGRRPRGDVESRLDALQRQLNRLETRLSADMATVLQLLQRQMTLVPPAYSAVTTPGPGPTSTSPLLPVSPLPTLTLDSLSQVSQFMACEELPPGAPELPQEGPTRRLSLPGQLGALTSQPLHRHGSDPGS
RAF proto-oncogene serine/threonine-protein kinase, sequence (P04049 whole entry): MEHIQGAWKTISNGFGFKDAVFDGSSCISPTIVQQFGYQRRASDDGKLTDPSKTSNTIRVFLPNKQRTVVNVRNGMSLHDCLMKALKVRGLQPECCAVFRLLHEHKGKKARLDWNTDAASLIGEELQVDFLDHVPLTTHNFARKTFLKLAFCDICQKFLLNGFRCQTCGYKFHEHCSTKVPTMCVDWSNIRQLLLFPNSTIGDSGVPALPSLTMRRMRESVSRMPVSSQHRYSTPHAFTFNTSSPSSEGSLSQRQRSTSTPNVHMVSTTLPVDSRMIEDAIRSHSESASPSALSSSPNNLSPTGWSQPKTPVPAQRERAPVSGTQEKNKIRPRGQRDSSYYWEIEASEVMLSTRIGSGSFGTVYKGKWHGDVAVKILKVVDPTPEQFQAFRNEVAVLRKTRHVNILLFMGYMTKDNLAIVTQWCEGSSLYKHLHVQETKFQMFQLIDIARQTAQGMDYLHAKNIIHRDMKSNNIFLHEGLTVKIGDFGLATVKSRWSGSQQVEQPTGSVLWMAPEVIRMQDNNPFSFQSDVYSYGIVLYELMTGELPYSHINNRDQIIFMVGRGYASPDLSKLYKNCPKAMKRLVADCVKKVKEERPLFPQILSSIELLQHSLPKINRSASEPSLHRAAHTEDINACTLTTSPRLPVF

Work on `CNC(=O)c1cc(Oc2ccc3nc(NC(=O)Nc4ccc(Cl)c(C(F)(F)F)c4)sc3c2)ccn1` yielded a GI50 [1] of 2.11 µM, a TGI [1] of 4.02 µM and a growth at 0.1 µM [2] of 91%. It also gave a growth at 0.1 µM [3] of 98%, a growth at 0.01 µM [4] of 115% and a growth at 1 µM [5] of 95%. It also gave a growth at 0.01 µM [6] of 110%, a growth at 0.01 µM [7] of 97% and a growth at 100 µM [8] of -25%. The growth at 1 µM [9] was 87%, the growth at 1 µM [10] was 78% and the IC50 [11] was 0.111 µM. It also gave a growth at 100 µM [12] of -40%, a growth at 100 µM [13] of 68% and a growth at 100 µM [14] of 55%. The growth at 0.01 µM [15] was 93%, the inhibition at 100 µM [16] was 26.2% and the growth at 100 µM [17] was -62%. The GI50 [18] was 2.68 µM, the TGI [18] was > 100 µM and the CC50 [18] was > 100 µM. The growth at 1 µM [19] was 79%, the growth at 100 µM [20] was -19% and the growth at 0.1 µM [21] was 80%. The growth at 0.01 µM [22] was 106%, the growth at 0.01 µM [23] was 97% and the growth at 100 µM [24] was 66%. For the same compound, the growth at 0.1 µM [25] was 106%, the growth at 0.01 µM [26] was 92% and the growth at 0.1 µM [27] was 96%. The GI50 [28] was 1.96 µM, the CC50 [28] was > 100 µM and the growth at 0.01 µM [29] was 103%. The growth at 100 µM [30] was -40%, the growth at 1 µM [31] was 96% and the growth at 1 µM [32] was 90%. The growth at 1 µM [33] was 80%, the TGI [34] was > 100 µM and the CC50 [34] was > 100 µM. For the same compound, the GI50 [35] was 1.78 µM and the TGI [35] was 3.9 µM.
`CNC(=O)c1cc(Oc2ccc(NC(=O)Nc3ccc(Cl)c(C(F)(F)F)c3)cc2)ccn1` [SORAFENIB] showed a GI50 [1] of 3.16 µM, a TGI [1] of 12.6 µM and a TGI [18] of 3.16 µM. For the same compound, the CC50 [18] was 7.94 µM, the GI50 [28] was 2 µM and the TGI [28] was 5.01 µM. The CC50 [28] was 25.1 µM, the GI50 [34] was 3.16 µM and the TGI [34] was 100 µM. It also gave a CC50 [34] of 100 µM and a TGI [35] of 10 µM.
